Test results reported in US20240261447A1, “COMPOSITIONS AND METHODS FOR TREATING CONDITIONS RELATED TO THE HEPATO[…]” (THE REGENTS OF THE UNIVERSITY OF MICHIGAN, priority 2021, published 2024).

Test system: Sphincter of Oddi
Settings: co-administered with Fe-PSMPs via oral gavage; pancreatic tumor-bearing mice
Description: Female C57BL/6 mice 6-8 weeks of age (Jackson Laboratories) were orthotopically inoculated in pancreas with KPC-Luc cells (1.5×10^4). […] During the biodistribution studies, ^68Ga-PSMPs, Fe-PSMPs or Nano-Calcium were administered in mice via oral gavage. Mice were euthanized 2 hours after oral gavage. The pancreas and other major organs were collected and wet-weighted and the radioactivity in the organs were measured by a gamma counter (Wizard 2 1-Detector, PerkinElmer).

With `O=[N+]([O-])OCC(CO[N+](=O)[O-])O[N+](=O)[O-]` [nitroglycerin] the “increase in the accumulation of Fe-PSMPs in the pancreas” value was 10 fold.
